Each molecule was assayed against activated ERK2 (Homo sapiens (Human), UniProt P28482) (assay: Activated ERK2 kinase assay (AlphaScreen, ERKtide peptide phosphorylation)). Details: 0.25 nM ERK2, 200 nM ERKtide peptide, 35 μM ATP, 30 min preincubation; read-out: ERK2 IC50.
Chain of activated ERK2 (P28482 whole entry): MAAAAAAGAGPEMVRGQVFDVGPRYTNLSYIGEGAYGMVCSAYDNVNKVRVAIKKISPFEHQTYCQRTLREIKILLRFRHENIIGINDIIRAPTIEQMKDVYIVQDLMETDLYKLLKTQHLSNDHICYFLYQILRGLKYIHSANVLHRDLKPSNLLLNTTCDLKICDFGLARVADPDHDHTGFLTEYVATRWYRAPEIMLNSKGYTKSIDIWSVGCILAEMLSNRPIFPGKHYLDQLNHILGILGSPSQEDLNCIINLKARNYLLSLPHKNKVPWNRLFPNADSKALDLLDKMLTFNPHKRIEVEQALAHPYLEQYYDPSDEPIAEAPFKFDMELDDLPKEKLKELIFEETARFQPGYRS
Type: biochemical
`CN(C)C[C@H](NC(=O)N1Cc2nc(Nc3ccccc3)ncc2C1(C)C)c1ccccc1` [compound 168, (R)-N-(2-(dimethylamino)-1-phenylethyl)-5,5-dimethyl-2-(phenylamino)-5H-pyrrolo[3,4-d]pyrimidine-6(7H)-carboxamide] was tested, and the IC50 was 125000 nM.

Same assay, conditions: […] ERK2, 200 nM ERKtide peptide, 35 μM ATP, 30 min preincubation; read-out: ERK2 IC50
`CC1(C)c2cnc(NC3CCOCC3)nc2CN1C(=O)NCc1ccc([S+]([O-])C(F)(F)F)cc1` (stereo not shown) [compound 134, 5,5-dimethyl-2-((tetrahydro-2H-pyran-4-yl)amino)-N-(4-((trifluoromethyl)sulfinyl)benzyl)-5H-pyrrolo[3,4-d]pyrimidine-6(7H)-carboxamide] gave an IC50 of 39 nM.
Work on `CC(=O)N1CC(Nc2ncc3c(n2)CN(C(=O)N[C@H](CO)c2ccccc2)C3(C)C)C1` [compound 69, (S)-2-((1-acetylazetidin-3-yl)amino)-N-(2-hydroxy-1-phenylethyl)-5,5-dimethyl-5H-pyrrolo[3,4-d]pyrimidine-6(7H)-carboxamide] yielded an IC50 of 5580 nM.
For `CC1(C)c2cnc(NC3CCOCC3)nc2CN1C(=O)NCc1ccccc1S(C)(=O)=O` [compound 112, 5,5-dimethyl-N-(2-(methylsulfonyl)benzyl)-2-((tetrahydro-2H-pyran-4-yl)amino)-5H-pyrrolo[3,4-d]pyrimidine-6(7H)-carboxamide], the IC50 was 806 nM.
Molecule `CC1(C)c2cnc(NC3CCOCC3)nc2CN1C(=O)NCc1cccc(S(=O)(=O)C2CC2)c1` [compound 130, N-(3-(cyclopropylsulfonyl)benzyl)-5,5-dimethyl-2-((tetrahydro-2H-pyran-4-yl)amino)-5H-pyrrolo[3,4-d]pyrimidine-6(7H)-carboxamide] has an IC50 of 71 nM.
Work on `CC(C)NC(=O)N1Cc2nc(NC3CCOCC3)ncc2C1(C)C` [compound 51, N-isopropyl-5,5-dimethyl-2-((tetrahydro-2H-pyran-4-yl)amino)-5H-pyrrolo[3,4-d]pyrimidine-6(7H)-carboxamide] yielded an IC50 of 938 nM.
For `CC(=O)N1CC2C(C1)C2Nc1ncc2c(n1)CN(C(=O)N[C@H](CO)c1ccccc1)C2(C)C` (stereo partly drawn) [compound 68, 2-((3-acetyl-3-azabicyclo[3.1.0]hexan-6-yl)amino)-N-((S)-2-hydroxy-1-phenylethyl)-5,5-dimethyl-5H-pyrrolo[3,4-d]pyrimidine-6(7H)-carboxamide], the IC50 was 450 nM.
For `CC1(C)c2cnc(NC3CCOCC3)nc2CN1C(=O)N[C@H](CO)C1CCCCC1` [compound 17, (S)-N-(1-cyclohexyl-2-hydroxyethyl)-5,5-dimethyl-2-((tetrahydro-2H-pyran-4-yl)amino)-5H-pyrrolo[3,4-d]pyrimidine-6(7H)-carboxamide], the IC50 was 67 nM.
`CNC(=O)C1CC(NC(=O)N2Cc3nc(NC4CCOCC4)ncc3C2(C)C)CN(Cc2cccc(Cl)c2)C1` (stereo not shown) [compound 103, N-(1-(3-chlorobenzyl)-5-(methylcarbamoyl)piperidin-3-yl)-5,5-dimethyl-2-((tetrahydro-2H-pyran-4-yl)amino)-5H-pyrrolo[3,4-d]pyrimidine-6(7H)-carboxamide] showed an IC50 of 9190 nM.
Work on `CC(=O)NCCNc1ncc2c(n1)CN(C(=O)N[C@H](CO)c1ccccc1)C2(C)C` [compound 56, (S)-2-((2-acetamidoethyl)amino)-N-(2-hydroxy-1-phenylethyl)-5,5-dimethyl-5H-pyrrolo[3,4-d]pyrimidine-6(7H)-carboxamide] yielded an IC50 of 3500 nM.
`CNC(=O)N1Cc2nc(NC3CCOCC3)ncc2C1(C)C` [compound 49, N,5,5-trimethyl-2-((tetrahydro-2H-pyran-4-yl)amino)-5H-pyrrolo[3,4-d]pyrimidine-6(7H)-carboxamide] was tested, and the IC50 was 988 nM.
In the case of `COC(=O)N1CC[C@H](Nc2ncc3c(n2)CN(C(=O)N[C@H](CO)c2ccccc2)C3(C)C)C1` [compound 65, (S)-methyl 3-((6-(((S)-2-hydroxy-1-phenylethyl)carbamoyl)-5,5-dimethyl-6,7-dihydro-5H-pyrrolo[3,4-d]pyrimidin-2-yl)amino)pyrrolidine-1-carboxylate], the IC50 is reported as 8830 nM.
Molecule `CC1(C)c2cnc(NC3CCOCC3)nc2CN1C(=O)N[C@@H]1CC1c1ccccc1` (stereo partly drawn) [compound 9, 5,5-dimethyl-N-((1R)-2-phenylcyclopropyl)-2-((tetrahydro-2H-pyran-4-yl)amino)-5H-pyrrolo[3,4-d]pyrimidine-6(7H)-carboxamide] has an IC50 of 23 nM.
With `O=C(NCc1ccc(Cl)cc1)N1Cc2nc(NC3CCOCC3)ncc2C12CCC2` [compound 76, N-(4-chlorobenzyl)-2′-((tetrahydro-2H-pyran-4-yl)amino)spiro[cyclobutane-1,5′-pyrrolo[3,4-d]pyrimidine]-6′(7′H)-carboxamide] the IC50 was 31 nM.
Molecule `C[C@@H](NC(=O)N1Cc2nc(NC3CCOCC3)ncc2C1(C)C)c1ccc(S(C)(=O)=O)cc1` [compound 139, (R)-5,5-dimethyl-N-(1-(4-(methylsulfonyl)phenyl)ethyl)-2-((tetrahydro-2H-pyran-4-yl)amino)-5H-pyrrolo[3,4-d]pyrimidine-6(7H)-carboxamide] has an IC50 of 32 nM.
Work on `CC1(C)c2cnc(NC3CCOCC3)nc2CN1C(=O)NC1(c2ccccc2)CC1` [compound 36, 5,5-dimethyl-N-(1-phenylcyclopropyl)-2-((tetrahydro-2H-pyran-4-yl)amino)-5H-pyrrolo[3,4-d]pyrimidine-6(7H)-carboxamide] yielded an IC50 of 17 nM.
`CC1(C)c2cnc(NC3CCOCC3)nc2CN1C(=O)NCc1ccccc1Cl` [compound 29, N-(2-chlorobenzyl)-5,5-dimethyl-2-((tetrahydro-2H-pyran-4-yl)amino)-5H-pyrrolo[3,4-d]pyrimidine-6(7H)-carboxamide] was tested, and the IC50 was 159 nM.
`CC1(C)c2cnc(N[C@H]3CC[C@H](O)CC3)nc2CN1C(=O)N[C@H](CO)c1ccccc1` [compound 60, N-((S)-2-hydroxy-1-phenylethyl)-2-(((1r,4S)-4-hydroxycyclohexyl)amino)-5,5-dimethyl-5H-pyrrolo[3,4-d]pyrimidine-6(7H)-carboxamide] was tested, and the IC50 was 82 nM.
With `CN(Cc1ccccc1)C(=O)N1Cc2nc(NC3CCOCC3)ncc2C1(C)C` [compound 27, N-benzyl-N,5,5-trimethyl-2-((tetrahydro-2H-pyran-4-yl)amino)-5H-pyrrolo[3,4-d]pyrimidine-6(7H)-carboxamide] the IC50 was 202 nM.
For `CC1(C)c2cnc(NC3CCOCC3)nc2CN1C(=O)NCc1ccccc1F` [compound 120, N-(2-fluorobenzyl)-5,5-dimethyl-2-((tetrahydro-2H-pyran-4-yl)amino)-5H-pyrrolo[3,4-d]pyrimidine-6(7H)-carboxamide], the IC50 was 158 nM.
`O=C(NCCc1ccccc1)N1Cc2nc(NC3CCOCC3)ncc2C12CCC2` [compound 96, N-phenethyl-2′-((tetrahydro-2H-pyran-4-yl)amino)spiro[cyclobutane-1,5′-pyrrolo[3,4-d]pyrimidine]-6′(7′H)-carboxamide] showed an IC50 of 90 nM.
With `CC1(C)c2cnc(NC3CCOCC3)nc2CN1C(=O)N[C@@H]1CCCN(S(=O)(=O)c2cccc(Cl)c2)C1` [compound 118, (R)-N-(1-((3-chlorophenyl)sulfonyl)piperidin-3-yl)-5,5-dimethyl-2-((tetrahydro-2H-pyran-4-yl)amino)-5H-pyrrolo[3,4-d]pyrimidine-6(7H)-carboxamide] the IC50 was 23 nM.
In the case of `CC1(C)c2cnc(NC3CC3)nc2CN1C(=O)N[C@H](CO)c1ccccc1` [compound 31, (S)-2-(cyclopropylamino)-N-(2-hydroxy-1-phenylethyl)-5,5-dimethyl-5H-pyrrolo[3,4-d]pyrimidine-6(7H)-carboxamide], the IC50 is reported as 317 nM.
With `CC1(C)c2cnc(N[C@H]3C[C@H](O)C3)nc2CN1C(=O)N[C@H](CO)c1ccccc1` [compound 59, N-((S)-2-hydroxy-1-phenylethyl)-2-(((1r,3S)-3-hydroxycyclobutyl)amino)-5,5-dimethyl-5H-pyrrolo[3,4-d]pyrimidine-6(7H)-carboxamide] the IC50 was 839 nM.
`C[C@@H](NC(=O)N1Cc2nc(NC3CCOCC3)ncc2C1(C)CO)c1ccccc1` (stereo partly drawn) [compound 92, 5-(hydroxymethyl)-5-methyl-N-((R)-1-phenylethyl)-2-((tetrahydro-2H-pyran-4-yl)amino)-5H-pyrrolo[3,4-d]pyrimidine-6(7H)-carboxamide] was tested, and the IC50 was 1530 nM.
`CC1(C)c2cnc(NC3CCOCC3)nc2CN1C(=O)NC(c1ccccc1)C(F)(F)F` (stereo not shown) [compound 26, 5,5-dimethyl-2-((tetrahydro-2H-pyran-4-yl)amino)-N-(2,2,2-trifluoro-1-phenylethyl)-5H-pyrrolo[3,4-d]pyrimidine-6(7H)-carboxamide] was tested, and the IC50 was 125 nM.
`C[C@@H](NC(=O)N1Cc2nc(NC3CCOCC3)ncc2C1(C)CO)c1ccccc1` (stereo partly drawn) [compound 91, 5-(hydroxymethyl)-5-methyl-N-((R)-1-phenylethyl)-2-((tetrahydro-2H-pyran-4-yl)amino)-5H-pyrrolo[3,4-d]pyrimidine-6(7H)-carboxamide] showed an IC50 of 657 nM.
`CC1(C)c2cnc(NC3CCOCC3)nc2CN1C(=O)NCc1ccc(Br)cc1` [compound 123, N-(4-bromobenzyl)-5,5-dimethyl-2-((tetrahydro-2H-pyran-4-yl)amino)-5H-pyrrolo[3,4-d]pyrimidine-6(7H)-carboxamide] was tested, and the IC50 was 7 nM.
For `C[C@@H](NC(=O)N1Cc2nc(NC3CCOCC3)ncc2C1C1CC1)c1cccc(Cl)c1` (stereo partly drawn) [compound 172, N-((R)-1-(3-chlorophenyl)ethyl)-5-cyclopropyl-2-((tetrahydro-2H-pyran-4-yl)amino)-5H-pyrrolo[3,4-d]pyrimidine-6(7H)-carboxamide], the IC50 was 146 nM.
`CNC(=O)C1CC(NC(=O)N2Cc3nc(NC4CCOCC4)ncc3C2(C)C)CN(Cc2ccccc2F)C1` (stereo not shown) [compound 102, N-(1-(2-fluorobenzyl)-5-(methylcarbamoyl)piperidin-3-yl)-5,5-dimethyl-2-((tetrahydro-2H-pyran-4-yl)amino)-5H-pyrrolo[3,4-d]pyrimidine-6(7H)-carboxamide] showed an IC50 of 2300 nM.
With `CC(=O)N1CC[C@H](Nc2ncc3c(n2)CN(C(=O)N[C@H](CO)c2ccccc2)C3(C)C)C1` [compound 63, 2-(((S)-1-acetylpyrrolidin-3-yl)amino)-N-((S)-2-hydroxy-1-phenylethyl)-5,5-dimethyl-5H-pyrrolo[3,4-d]pyrimidine-6(7H)-carboxamide] the IC50 was 3560 nM.

Source: patent US9546173B2 (Novartis AG, priority 2012, dated 2017)
